Tests used:
Format in all cases: functional, organism-based
[1] = tested on: Entamoeba histolytica; experiment: Inhibitory concentration against Entamoeba histolytica (HK-9) for antiprotozoal activity
[2] = tested on: Giardia intestinalis; experiment: Inhibitory concentration against G. Lamblia (IMSS-0989) for antigiardial activity; settings: Giardia duodenalis
[3] = tested on: Trichomonas vaginalis; experiment: Inhibitory concentration against Trichomonas vaginalis (tv-43) for anti-trichomonal activity

Structure (SMILES): CC(C)CN(CC(C)C)/C(S)=N/N=C/c1ccc([N+](=O)[O-])s1
- IC50 [1]: 11.6 µM
- IC50 [2]: 12 µM
- IC50 [3]: 4.44 µM

Structure (SMILES): CC(C)C/N=C(\S)N/N=C/c1ccc([N+](=O)[O-])s1
- IC50 [1]: 13.5 µM
- IC50 [2]: 33.3 µM
- IC50 [3]: 6.31 µM

Structure (SMILES): O=[N+]([O-])c1ccc(/C=N/N=C(\S)NC2CCCC2)s1
- IC50 [1]: 2.86 µM
- IC50 [2]: 33 µM
- IC50 [3]: 3.97 µM

Structure (SMILES): CCC/N=C(\S)N/N=C/c1ccc([N+](=O)[O-])s1
- IC50 [1]: 15.4 µM
- IC50 [2]: 57.3 µM
- IC50 [3]: 21 µM

Structure (SMILES): CCN(CC)/C(S)=N/N=C/c1ccc([N+](=O)[O-])s1
- IC50 [1]: 10.1 µM
- IC50 [2]: 8.03 µM
- IC50 [3]: 6.01 µM

Structure (SMILES): O=[N+]([O-])c1ccc(/C=N/N=C(\S)NC2CCCCC2)s1
- IC50 [1]: 2.41 µM
- IC50 [2]: 13.9 µM
- IC50 [3]: 10.7 µM

Structure (SMILES): CCCN(CCC)/C(S)=N/N=C/c1ccc([N+](=O)[O-])s1
- IC50 [1]: 6.4 µM
- IC50 [2]: 8.2 µM
- IC50 [3]: 4.06 µM

Structure (SMILES): CCCC/N=C(\S)N/N=C/c1ccc([N+](=O)[O-])s1
- IC50 [1]: 12.2 µM
- IC50 [2]: 17.2 µM
- IC50 [3]: 1.49 µM

Structure (SMILES): O=[N+]([O-])c1ccc(/C=N/N=C(\S)N2CCCCCC2)s1
- IC50 [1]: 1.71 µM
- IC50 [2]: 8.47 µM
- IC50 [3]: 8.78 µM

Structure (SMILES): Cc1ncc([N+](=O)[O-])n1CCO [METRONIDAZOLE]
- IC50 [1]: 2.1 µM
- IC50 [2]: 1.16 µM
- IC50 [3]: 1.92 µM

Structure (SMILES): CN(/C(S)=N/N=C/c1ccc([N+](=O)[O-])s1)C1CCCCC1
- IC50 [1]: 8.3 µM
- IC50 [2]: 11.7 µM
- IC50 [3]: 18.3 µM

Structure (SMILES): CC(C)/N=C(\S)N/N=C/c1ccc([N+](=O)[O-])s1
- IC50 [1]: 9.6 µM
- IC50 [2]: 26.2 µM
- IC50 [3]: 5.94 µM
